{
  "source": "patent US20210038502A1",
  "about": "“S1PR2 ANTAGONISTS FOR TREATING DISEASES INVOLVING ABNORMAL IMMUNE RESPONSES” (INSERM (Institut National de la Santé et de la Recherche …, priority 2017, published 2021)",
  "key": {"tonsil naive T cells": {"test_system": "tonsil naive T cells", "experiment": "Transwell chemotaxis of tonsil naive T cells towards S1P", "type": "cell-based, human", "conditions": "for Effect of pharmacological inhibitor on tonsil naive T cell migration to S1P: tonsil naive T cells, 2 h pre-incubation with inhibitor"}, "tonsil TCM and TEM cells": {"test_system": "tonsil TCM and TEM cells", "experiment": "Transwell migration of tonsil memory T cells (TCM, TEM) in presence of S1P", "type": "cell-based, human", "conditions": "for Impact on memory T cell migration in the presence of S1P: tonsil memory T cells"}, "[1]": {"test_system": "peripheral T cells and NK cells", "conditions": "cited from earlier work"}, "[2]": {"test_system": "act-CD4+ and act-CD8+ T cells", "experiment": "Transwell migration of tonsil recently activated T cells (CD38+HLA-DR+) in presence of S1P", "type": "cell-based, human", "text": "Upon antigen-mediated activation, T cells are retained within secondary lymphoid organs, presumably to sustain their activation and differentiation through serial interactions with antigen presenting cells. Mechanistically, it was previously reported that mouse T cells lose their reactivity during this phase by down regulating S1PR1 expression (Matloubian et al., 2004). We addressed this point in human, exploiting the fact that tonsils contain act-T cells in a variable proportion, classically defined as CD38^+HLA-DR^+."}, "tonsil T cell subsets": {"test_system": "tonsil T cell subsets", "experiment": "Transwell migration of tonsil T cell subsets toward CXCL12 +/- S1P", "procedure": "Results are shown as migration index.\nAll material was used after obtaining informed consent and the research was conducted in accordance with the Helsinki Declaration. […] Pediatric tonsils were obtained from patients undergoing tonsillectomy and were cut into pieces using a scalpel and then passed through a 70 μM cell strained to produce a cell suspension. Cells were then ficollized and washed before migration studies.\nTonsil lymphocytes or PBMC were suspended in RPMI1640 supplemented with 4 mg/ml fatty acid-free bovine albumin (Sigma, St-Louis, USA). […] Cell migration was analyzed in Transwell chambers (Costar, Cambridge, USA) with 5 μm pore-width polycarbonate filters. […] PBMC or tonsil cells were added to the top chambers of the transwell systems in the presence or absence of the pharmacological inhibitors and incubated at 37° C. for 2 hours. The chemoattractants were then added in the lower chamber and the cells were allowed to migrate for 2 hours. Transmigrated cells were stained for CD3 (UCHT1), CD4 (RPA-T4), CD8 (RPA-T8), CD45RO (UCHL1), CCR7 (G043H7), CD69 (FN50), CD103 (Ber-act8), CD38 (HIT32) and HLA-DR (LN3) and analyzed/counted by flow cytometry (MACSquant, Miltenyi biotec, Bergisch Gladbach, Germany). All antibodies were purchased from BD-Biosciences (San Jose, Calif.), eBioscience (San Diego, Calif.), Beckman-Coulter (Miami, Fla.) or Biolegend (San Diego, Calif.). […] The percentage of input was calculated as the ratio between the number of cells migrating in a given condition and the number of cells used for the chemotaxis assay."}, "[3]": {"test_system": "tonsil CD4+ TRM cells (CD69 positive)", "experiment": "Transwell migration of tonsil resident memory T cells (TRM) in presence of S1P", "conditions": "irrespective of CD103 expression", "procedure": "All material was used after obtaining informed consent and the research was conducted in accordance with the Helsinki Declaration. Human peripheral blood was obtained from healthy donors. Cells were ficollized and then washed several times in complete medium before resuspension in chemotaxis medium. Pediatric tonsils were obtained from patients undergoing tonsillectomy and were cut into pieces using a scalpel and then passed through a 70 μM cell strained to produce a cell suspension. Cells were then ficollized and washed before migration studies.\nTonsil lymphocytes or PBMC were suspended in RPMI1640 supplemented with 4 mg/ml fatty acid-free bovine albumin (Sigma, St-Louis, USA). […] Cell migration was analyzed in Transwell chambers (Costar, Cambridge, USA) with 5 μm pore-width polycarbonate filters. […] Transmigrated cells were stained for CD3 (UCHT1), CD4 (RPA-T4), CD8 (RPA-T8), CD45RO (UCHL1), CCR7 (G043H7), CD69 (FN50), CD103 (Ber-act8), CD38 (HIT32) and HLA-DR (LN3) and analyzed/counted by flow cytometry (MACSquant, Miltenyi biotec, Bergisch Gladbach, Germany). […] The percentage of input was calculated as the ratio between the number of cells migrating in a given condition and the number of cells used for the chemotaxis assay."}, "blood T cells": {"test_system": "blood T cells", "experiment": "Transwell chemotaxis of blood T cells (PBMC) towards S1P", "type": "cell-based, human", "text": "T cell subsets were identified by flow cytometry."}, "S1PR1": {"biological_target": "S1PR1 (Homo sapiens, UniProt P21453)", "sequence (P21453 whole entry, species assumed)": "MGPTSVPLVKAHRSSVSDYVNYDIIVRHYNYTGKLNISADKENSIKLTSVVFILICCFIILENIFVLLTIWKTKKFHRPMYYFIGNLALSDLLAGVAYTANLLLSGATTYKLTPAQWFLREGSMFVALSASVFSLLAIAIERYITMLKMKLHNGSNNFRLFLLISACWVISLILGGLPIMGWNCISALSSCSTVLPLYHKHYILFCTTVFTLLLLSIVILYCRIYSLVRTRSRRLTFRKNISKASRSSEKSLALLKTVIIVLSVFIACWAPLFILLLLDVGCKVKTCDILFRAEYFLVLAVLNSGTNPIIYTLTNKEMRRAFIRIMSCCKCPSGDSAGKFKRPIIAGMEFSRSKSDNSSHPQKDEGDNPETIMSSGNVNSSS", "conditions": "read-out: Kd of S1P to S1PR1; cited from earlier work"}},
  "data": [
    {"smiles": "Cc1cc(CN)cc(C)c1NC(=O)c1ccc(-c2cc(Cl)ccc2Cl)o1", "note": "[CYM50358]", "values": [
      {"measurement": "Effect of pharmacological inhibitor on tonsil naive T cell migration to S1P", "setting": "tonsil naive T cells; S1P gradient", "result": "insensitive"}
    ]},
    {"smiles": "CCCCCCCCc1ccc(CCC(N)(CO)CO)cc1", "note": "[FTY720]", "values": [
      {"measurement": "Effect of pharmacological inhibitor on tonsil naive T cell migration to S1P", "setting": "tonsil naive T cells; S1P gradient", "result": "strongly inhibited"},
      {"measurement": "Impact on memory T cell migration in the presence of S1P", "setting": "tonsil TCM and TEM cells", "result": "negative impact"},
      {"measurement": "Effect on peripheral TEM cells and NK cells in treated patients", "setting": "[1]", "result": "does not affect"},
      {"measurement": "Effect on peripheral naive and central memory T cells in treated patients", "setting": "[1]", "result": "quick decrease"}
    ]},
    {"smiles": "Cc1nn(C)c2nc(NNC(=O)Nc3cc(Cl)nc(Cl)c3)cc(C(C)C)c12", "note": "[JTE-013]", "values": [
      {"measurement": "Effect of pharmacological inhibitor on tonsil naive T cell migration to S1P", "setting": "tonsil naive T cells; S1P gradient", "result": "increased"},
      {"measurement": "Effect on the inhibitory effect of S1P on TCM and TEM migration", "setting": "tonsil TCM and TEM cells; tonsil TCM and TEM cells", "result": "abrogated"},
      {"measurement": "Effect on S1P inhibition of spontaneous migration of act-CD4+ and act-CD8+ T cells", "setting": "[2]; CD38+HLA-DR+ tonsil T cells", "result": "curbed"},
      {"measurement": "Effect on S1P-mediated decrease of CXCL12-induced migration of TEM and TCM cells", "setting": "tonsil T cell subsets; CXCL12 12 ng/ml, S1P 37 nM, JTE-013 1000 nM for 2 h", "result": "abrogated"},
      {"measurement": "Effect on S1P inhibition of spontaneous migration of CD4+ TRM cells", "setting": "[3]; CD69 positive", "result": "abrogated"}
    ]},
    {"smiles": "CCCCCCCCCCCCC/C=C/[C@@H](O)[C@@H](N)COP(=O)(O)O", "note": "[S1P, Sphingosine-1 phosphate]", "values": [
      {"measurement": "Effect of S1P gradients on tonsil naive T cell chemotaxis", "setting": "tonsil naive T cells; compared to control without S1P", "result": "strongly increased"},
      {"measurement": "S1P concentration giving maximum migration of tonsil naive T cells", "setting": "tonsil naive T cells; transwell, S1P gradient", "result": "30 to 60", "unit": "nM"},
      {"measurement": "Effect of S1P on spontaneous migration of tonsil TCM and TEM cells", "setting": "tonsil TCM and TEM cells; S1P in lower chamber, especially memory CD4 T cells", "result": "inhibited"},
      {"measurement": "Effect of S1P on spontaneous migration of act-CD4+ and act-CD8+ T cells", "setting": "[2]", "result": "strongly inhibited"},
      {"measurement": "Response of blood memory T cells to S1P", "setting": "blood T cells; PBMC", "result": "did not respond"},
      {"measurement": "Response of blood naive T cells to S1P", "setting": "blood T cells; PBMC from healthy donors", "result": "did not respond"},
      {"measurement": "Kd", "setting": "S1PR1", "result": 8, "unit": "nM"},
      {"measurement": "Effect of S1P on CXCL12-induced migration of TEM cells", "setting": "tonsil T cell subsets; S1P 37 nM in lower chamber", "result": "decreased"},
      {"measurement": "Effect of S1P on CXCL12-induced migration of naive CD4 and CD8 T cells", "setting": "tonsil T cell subsets; S1P 37 nM in lower chamber", "result": "slightly increased"},
      {"measurement": "Effect of S1P on spontaneous migration of CD4+ TRM cells", "setting": "[3]", "result": "inhibited"}
    ]},
    {"smiles": "FC(F)(F)c1cccc(-c2noc(-c3cc(-c4ccccc4)c(C(F)(F)F)s3)n2)c1", "note": "[SEW2871]", "values": [
      {"measurement": "Effect of pharmacological inhibitor on tonsil naive T cell migration to S1P", "setting": "tonsil naive T cells; S1P gradient", "result": "strongly inhibited"},
      {"measurement": "Impact on memory T cell migration in the presence of S1P", "setting": "tonsil TCM and TEM cells", "result": "negative impact"}
    ]}
  ]
}
